US7531500B2, “Preventing airway mucus production by administration of EGF-R antagonists” (The Regents of the University of California, priority 1998, dated 2009)

How the values were obtained:
NCI-H292 cells [1] = assay: Immunoassay of MUC5AC protein in NCI-H292 cells (Example 2); type: cell-based, human; conditions: for MUC5AC protein synthesis induced by the supernatant of activated neutrophils: BIBX1522 10 μg/ml, AG1478 10 μM, AG1295 100 μM, A1 100 μM, 30 min pretreatment, antibodies preincubated with supernatant; for MUC5AC synthesis by supernatant of activated neutrophils, cigarette smoke and H2O2 / MUC5AC protein synthesis by TGFα: DMSO 1%, SOD 300 U/ml; for MUC5AC synthesis by supernatant of activated neutrophils, cigarette smoke and H2O2: DMTU 50 mM
Protocol: Cell Culture. NCI-H292 cells, a human pulmonary mucoepidermoid carcinoma cell line, were grown in RPMI 1640 medium containing 10% fetal bovine serum, penicillin (100 U/ml), streptomycin (100 μg/ml) and Hepes (25 mM) at 37° C. in a humidified 5% CO2, water-jacketed incubator. Either 6-well culture plates or 8-chamber slides were used to culture the cells. […] The cells were then washed and incubated with fresh medium alone. Experiments were terminated at preselected times (for mRNA, 6 h and 12 h; for protein, 24 h). As controls, cells were incubated with medium alone for same time periods. […] In inhibition studies with blocking antibodies to EGF-R ligands, the supernatants were pretreated with anti-TGFα antibody (Calbiochem) or anti-EGF antibody for 30 min and then added to NCI-H292 cells. The role of oxygen free radicals was examined using scavengers of oxygen free radical DMSO (1%, Sigma), 1,3-dimethyl-2-thiourea (DMTU, 50 mM, Sigma), or superoxide dismutase (SOD, 300 U/ml, Sigma).
Preparation of Cigarette Smoke Solution. Research cigarettes (code2R1, produced for the University of Kentucky Tobacco and Health Research Foundation) were used in the study. Cigarette smoke solution was prepared as previously described (Dusser et al. (1989) J. Clin. Invest. 84:900-906). In brief, cigarette smoke was withdrawn into a polypropylene syringe (35 ml) at a rate of one puff/min (10 times) and bubbled slowly into 20 ml of RPM11640 containing 50 mM Hepes buffer. The smoke solution was then titrated to pH 7,4 and used immediately after preparation.
Immunoassay of MUC5AC Protein. MUC5AC protein was measured as described above. In brief, cell lysates were prepared with PBS at multiple dilutions, and 50 μl of each sample was incubated with bicarbonate-carbonate buffer (50 μl) at 40° C. in a 96-well plate (Maxisorp Nunc, Fisher Scientific, Santa Clara, Calif.), until dry. Plates were washed three times with PBS and blocked with 2% BSA (fraction V, Sigma) for 1 h at room temperature. Plates were again washed three times with PBS and then incubated with 50 μl of mouse monoclonal MUC5AC antibody (1:100) that was diluted with PBS containing 0.05% Tween 20. After 1 h, the wells were washed three times with PBS, and 100 μl horseradish peroxidase-goat anti-mouse IgG conjugate (1:10,000, Sigma) was dispensed into each well. After 1 h, plates were washed three times with PBS. Color reaction was developed with TMB peroxidase solution (Kirkegaard & Perry Laboratories, Gaithersburg, Md.) and stopped with 2N H2SO4. Absorbance was read at 450 nm.

NCI-H292 cells [2] = assay: MUC5AC mRNA and protein in NCI-H292 cells incubated with cigarette smoke solution (Example 7); type: cell-based, human; conditions: BIBX1522 10 μg/ml, AG1478 10 μM; for MUC5AC protein synthesis induced by cigarette smoke solution: AG1295 100 μM, A1 100 μM, DMSO 1%, SOD 300 U/ml
Protocol: NCI-H292 cells, a human pulmonary mucoepidermoid carcinoma cell line, were grown in RPMI 1640 medium containing 10% fetal bovine serum, penicillin (100 U/ml), streptomycin (100 μg/ml) and Hepes (25 mM) at 37° C. in a humidified 5% CO2 water-jacketed incubator. Either 6-well culture plates or 8-chamber slides were used to culture the cells. When confluent, cells were incubated for 1 hour with cigarette smoke solution. The cells were then washed and incubated with fresh medium alone. Experiments were terminated at preselected times (for mRNA, 6 hours and 12 hours; for protein, 24 hours). As controls, cells were incubated with medium alone for same time periods. […] The effects of a selective inhibitor of platelet-derived growth factor receptor tyrosine kinase (tyrphostin AG1295, 100 μM, Calbiochem), and a negative control for tyrphostins (tyrphostin A1, 100 μM, Calbiochem) were also examined. The role of reactive oxygen species was examined using a scavenger of oxygen free radicals DMSO (1%, Sigma), or superoxide dismutase (SOD, 300 U/ml, Sigma).
In situ hybridization was performed using a human EGFR probe, which contains a 350-bp cDNA fragment of the human EGFR gene (pTRI-EGFR-human probe template, Ambion, Austin, Tex.) and a human MUC5AC probe, which contains a 298-bp cDNA fragment of the human MUC5AC gene, The 350-bp cDNA human EGFR was subcloned into pBluescript II SK-vector at Kpn I and EcoR I sites. This pBluescript was used to generate human EGFR antisense and sense probes. Hybridization was performed as described previously. Lou et al. (1998) Am. J. Respir. Crit. Care Med. 157:1927-1934. In brief, the cells grown on the 8-chamber slides were fixed in 4% paraformaldehyde, rehydrated in 0.5×SSC, and then acetylated in triethanolamine and acetic anhydride. Hybridization was carried out with 2500-4000 cpm/μl of antisense or sense probe in 50% deionized formamide, 0.3 M NaCl, 20 mM Tris, 5 mM EDTA, 1× Denhardt's solution, 20 mM dithiothreitol, 10% dextran sulfate, 0.5 mg/ml yeast tRNA, and 0.5 mg/ml sonicated salmon sperm DNA at 58° overnight. Posthybridization treatment consisted of washes with 2×SSC, 1 mM EDTA, 10 mM β-mercaptoethanol at room temperature, incubation with RNase solution (20 μg/ml) for 30 min at room temperature, and further washes in 0.1×SSC, 1 mM EDTA, 10 mM β-mercaptoethanol at 55° C. for 2 hours and then in 0.5×SSC at room temperature for 20 minutes. Specimens were dehydrated, air-dried, and covered with Kodak NBT nuclear track emulsion (Eastman Kodak, Rochester, N.Y.) for autoradiography. After exposure for 7 to 21 days at 4° C., the slides were developed, fixed, and counterstained with hematoxylin.
MUC5AC protein was measured as described previously. Takeyama et al. (1999) Proc. Natl. Acad. Sci. USA 96:3081-3086. In brief, cell lysates were prepared with PBS at multiple dilutions, and 50 μl of each sample was incubated with bicarbonate-carbonate buffer (50 μl) at 40° C. in a 96-well plate (Maxisorp Nunc, Fisher Scientific, Santa Clara, Calif.), until dry. Plates were washed three times with PBS and blocked with 2% bovine serum albumin, fraction V (Sigma) for 1 hour at room temperature. Plates were again washed three times with PBS and then incubated with 50 μl of MUC5AC mAb (1:1 00) that was diluted with PBS containing 0.05% Tween 20. After 1 hour, the wells were washed three times with PBS, and 100 μl horseradish peroxidase-goat anti-mouse IgG conjugate (1:10,000) was dispensed into each well. After 1 hour, plates were washed three times with PBS. Color reaction was developed with 3,3′,5,5′-tetramethylbenzidine (TMB) peroxidase solution (Kirkegaard & Perry Laboratories, Gaithersburg, Md.) and stopped with 2N H2S04. Absorbance was read at 450 nm.

EGFR = EGFR (Homo sapiens, UniProt P00533); assay: Immunoprecipitation of EGF-R and immunoblotting for tyrosine phosphorylation in NCI-H292 cells; type: cell-based; parameters: These cells express EGF-R constitutively; endogenous in cells; host or cells: NCI-H292 (human pulmonary mucoepidermoid carcinoma)
Protocol: Immunoprecipitation for EGF-R Protein and Immunoblotting for Tyrosine Phosphorylation. Cells were serum-starved for 24 h and then stimulated with TGFα, H2O2, or the supernatant of activated neutrophils for 15 min. After stimulation, cells were lysed and incubated for 30 min in an orbital shaker at 4° C. To remove insoluble material, cell lysates were centrifuged at 14,000 rpm for 5 min at 4° C. Aliquots of supernatants containing equal amounts of protein were immunoprecipitated with anti-EGF receptor antibody (polyclonal, Ab4, Calbiochem) and 20 μl of protein A-agarose (Santa Cruz) for 2 h at 4° C. Precipitates were washed three times with 0.5 ml of lysis buffer, suspended in SDS sample buffer, and boiled for 5 min. Proteins were separated by SDS-PAGE in 8.0% acrylamide gel. The resulting gel was equilibrated in the transfer buffer: 25 mM Tris-HCl, 192 mM glycine, 20% (vol/vol) methanol, pH 8.3. The proteins were then transferred electrophoretically to nitrocellulose membranes (0.22 μm), blocked with 5% fat-free skimmed milk in PBS containing 0.05% Tween 20 overnight and then incubated with monoclonal anti-phosphotyrosine antibody (1:100,Santa Cruz) for 1 h. Bound antibody was visualized according to a standard protocol for the avidin-biotin-alkaline phosphatase complex method (ABC kit, Vector Laboratories).

Chain of EGFR (P00533 25-1210): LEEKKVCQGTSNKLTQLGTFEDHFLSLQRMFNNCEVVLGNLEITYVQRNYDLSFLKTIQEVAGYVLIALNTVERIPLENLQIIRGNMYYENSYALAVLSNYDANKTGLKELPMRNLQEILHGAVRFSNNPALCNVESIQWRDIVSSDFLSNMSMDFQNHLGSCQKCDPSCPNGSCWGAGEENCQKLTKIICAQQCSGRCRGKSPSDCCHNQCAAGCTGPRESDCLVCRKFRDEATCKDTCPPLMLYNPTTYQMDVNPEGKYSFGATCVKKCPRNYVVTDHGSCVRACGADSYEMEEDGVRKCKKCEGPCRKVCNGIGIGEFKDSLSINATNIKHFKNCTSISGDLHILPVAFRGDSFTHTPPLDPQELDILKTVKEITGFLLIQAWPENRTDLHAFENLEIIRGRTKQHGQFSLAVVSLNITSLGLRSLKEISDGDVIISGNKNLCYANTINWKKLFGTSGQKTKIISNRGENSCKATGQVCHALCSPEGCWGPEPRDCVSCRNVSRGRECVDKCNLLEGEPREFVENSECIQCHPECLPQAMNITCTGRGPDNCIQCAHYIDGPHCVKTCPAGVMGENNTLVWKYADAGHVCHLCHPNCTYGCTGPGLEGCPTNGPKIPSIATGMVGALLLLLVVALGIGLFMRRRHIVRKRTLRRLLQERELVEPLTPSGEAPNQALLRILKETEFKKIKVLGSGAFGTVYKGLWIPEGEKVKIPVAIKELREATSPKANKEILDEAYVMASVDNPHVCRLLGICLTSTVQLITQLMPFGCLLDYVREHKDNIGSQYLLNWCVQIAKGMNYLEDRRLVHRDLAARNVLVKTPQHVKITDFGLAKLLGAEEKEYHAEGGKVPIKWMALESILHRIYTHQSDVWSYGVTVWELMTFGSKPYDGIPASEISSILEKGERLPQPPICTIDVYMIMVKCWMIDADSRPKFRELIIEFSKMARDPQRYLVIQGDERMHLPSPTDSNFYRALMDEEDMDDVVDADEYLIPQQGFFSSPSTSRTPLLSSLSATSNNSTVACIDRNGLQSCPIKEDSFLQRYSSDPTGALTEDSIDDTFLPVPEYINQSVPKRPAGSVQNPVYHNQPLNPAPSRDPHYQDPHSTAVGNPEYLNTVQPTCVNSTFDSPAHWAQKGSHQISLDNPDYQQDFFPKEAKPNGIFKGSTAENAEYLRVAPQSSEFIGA

Row | Compound | MUC5AC protein synthesis induced by the supernatant of activated neutrophils (NCI-H292 cells [1]) | MUC5AC protein synthesis induced by cigarette smoke solution (NCI-H292 cells [2]) | increase in MUC5AC protein synthesis induced by all stimuli (cigarette smoke, H2O2, TGFα) (NCI-H292 cells [1]; pretreatment 10 μM) | MUC5AC mRNA expression induced by cigarette smoke solution (NCI-H292 cells [2]) | MUC5AC synthesis induced by cigarette smoke (NCI-H292 cells [1]) | MUC5AC synthesis by supernatant of activated neutrophils, cigarette smoke and H2O2 (NCI-H292 cells [1]) | MUC5AC protein synthesis by TGFα (NCI-H292 cells [1]) | TGFα-induced EGF-R tyrosine phosphorylation (EGFR) | supernatant-, cigarette smoke-, and H2O2-induced EGF-R tyrosine phosphorylation (EGFR)
1 | Cc1cc2ncc(-c3ccccc3)nc2cc1C [AG1295] | without effect | without effect |  |  |  |  |  |  | 
2 | COc1cc2ncnc(Nc3cccc(Cl)c3)c2cc1OC [AG1478] | prevented | prevented | prevented | prevented |  |  |  |  | 
3 | C[S+](C)[O-] [DMSO] |  | inhibited significantly |  |  | partially inhibited | significantly inhibited | unaffected | had no effect | inhibited
4 | superoxide dismutase [SOD] |  | inhibited significantly |  |  | partially inhibited | significantly inhibited | unaffected |  | 
